# Values quoted from earlier work as cited in patent US20060147566A1, “Use of physiologically active fatty acids” (priority 2004, published 2006).
# Tested on: pruritus
# Conditions: known from clinical studies; acyl salicylate prior art
structure (smiles),measurement,value
CC(=O)Oc1ccccc1C(=O)O [aspirin],significance for the treatment of pruritus,about 50%
